The results in this text go back to ChEMBL document CHEMBL1156403, “A new dimeric dihydrochalcone and a new prenylated flavone from the bud covers of Artocarpus altilis: potent inhibitors of cathepsin K” (J Nat Prod, 2002).

For the assay, the target named is T1, Cathepsin K (Homo sapiens, UniProt P43235).
T1 sequence (P43235 whole entry): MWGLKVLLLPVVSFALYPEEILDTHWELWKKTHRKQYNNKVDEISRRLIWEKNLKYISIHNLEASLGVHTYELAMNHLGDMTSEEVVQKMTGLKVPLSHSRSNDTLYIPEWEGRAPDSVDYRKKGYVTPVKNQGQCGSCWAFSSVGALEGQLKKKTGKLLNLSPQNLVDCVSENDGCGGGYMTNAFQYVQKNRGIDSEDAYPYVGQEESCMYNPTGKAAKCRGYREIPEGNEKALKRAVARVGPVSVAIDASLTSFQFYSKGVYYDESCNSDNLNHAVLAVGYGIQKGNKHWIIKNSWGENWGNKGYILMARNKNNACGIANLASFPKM
The assay is described as follows: Inhibition of cathepsin K by fluorimetric assay.

In the case of `CC(C)=CCC/C(C)=C/Cc1c(CCC(=O)c2ccc(O)cc2O)ccc(O)c1O`, 0.17 µM corresponded to half-maximal inhibition (IC50).
The value for `CC(C)=CCC/C(C)=C/Cc1c(CCC(=O)c2ccc(O)cc2O)cc(-c2cc(O)c(O)c(C/C=C(\C)CCC=C(C)C)c2CCC(=O)c2ccc(O)cc2O)c(O)c1O` [CYCLOALTILISIN 6] was 0.098 µM; that for `CC(C)=CCCC1(C)C=Cc2c(cc(O)c3c2OC(c2ccc(O)cc2)CC3=O)O1` (stereo not drawn) [CYCLOALTILISIN 7] was 0.84 µM.

One may read the IC50 as the concentration that inhibits the measured activity by half.
